Results as given in BindingDB's records for PubMed 37683364 (Institute of Respiratory Health).

Target: RAC-alpha serine/threonine-protein kinase (Homo sapiens, UniProt P31749)
Test: Inhibition of AKT phosphorylation in human OVCAR-8 cells assessed as reduction in pAKT level incubated for 24 hrs by Western blot analysis

RAC-alpha serine/threonine-protein kinase, sequence (P31749 whole entry): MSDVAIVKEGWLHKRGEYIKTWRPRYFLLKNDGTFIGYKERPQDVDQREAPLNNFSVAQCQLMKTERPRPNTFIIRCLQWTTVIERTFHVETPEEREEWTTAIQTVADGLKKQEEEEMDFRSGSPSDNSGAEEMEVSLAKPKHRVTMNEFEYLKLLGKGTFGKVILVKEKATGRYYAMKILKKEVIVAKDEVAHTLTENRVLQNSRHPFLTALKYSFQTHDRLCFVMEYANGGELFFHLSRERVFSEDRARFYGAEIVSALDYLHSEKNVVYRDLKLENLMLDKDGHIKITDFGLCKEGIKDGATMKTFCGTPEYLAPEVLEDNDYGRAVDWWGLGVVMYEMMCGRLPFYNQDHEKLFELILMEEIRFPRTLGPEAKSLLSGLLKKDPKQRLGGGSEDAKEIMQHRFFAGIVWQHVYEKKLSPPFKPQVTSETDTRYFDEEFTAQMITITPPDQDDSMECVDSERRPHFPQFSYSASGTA

| IC50 [nM] | SMILES |
| --- | --- |
| 40 | O=C1NC(=O)C(Cc2ccc3nccc(-c4ccncc4)c3c2)S1 (centres undefined) |
| 7 | O=S(=O)(Nc1cncc(-c2ccc3nccc(-c4ccncc4)c3c2)c1)c1ccccc1F |
| 49 | Nc1ncc(-c2ccc3nccc(-c4ccncc4)c3c2)cc1S(N)(=O)=O |
| 76 | c1cc(-c2ccnc3ccc(-c4cnc5[nH]ncc5c4)cc23)ccn1 |
